According to ChEMBL document CHEMBL4842385, “Indirubin Derivatives as Dual Inhibitors Targeting Cyclin-Dependent Kinase and Histone Deacetylase for Treating Cancer” (J Med Chem, 2021):

Experiments:
[1] = molecular target: CDK2/Cyclin A2 (Homo sapiens) (UniProt P24941+P20248); conditions: dose 100.0 nM, time 10.0 min
[2] = molecular target: Histone deacetylase (Homo sapiens) (UniProt Q13547+O15379+Q9UBN7+Q92769+Q9UQL6+Q8WUI4+Q9BY41+Q96DB2+P56524+Q9UKV0+Q969S8); conditions: HeLa, Nucleus, dose 1000.0 nM, time 1.0 hrs
[3] = molecular target: CDK4/Cyclin D3 (Homo sapiens) (UniProt P11802+P30281); conditions: dose 100.0 nM, time 10.0 min
[4] = molecular target: CDK6/cyclin D3 (Homo sapiens) (UniProt P30281+Q00534); conditions: dose 100.0 nM, time 10.0 min
HepG2 = experiment: Antiproliferative activity against human HepG2 cells assessed as cell growth inhibition measured after 48 hrs by CCK8 assay; assay type: functional, cell-based; conditions: HepG2, 48 h
MCF7 = experiment: Antiproliferative activity against human MCF7 cells assessed as cell growth inhibition measured after 48 hrs by CCK8 assay; assay type: functional, cell-based; conditions: MCF7, 48 h
HeLa = experiment: Antiproliferative activity against human HeLa cells assessed as cell growth inhibition measured after 48 hrs by CCK8 assay; assay type: functional, cell-based
K562 = experiment: Antiproliferative activity against human K562 cells assessed as cell growth inhibition measured after 48 hrs by CCK8 assay; assay type: functional, cell-based; conditions: K562, 48 h
A549 [5] = experiment: Antiproliferative activity against human A549 cells assessed as cell growth inhibition measured after 48 hrs by CCK8 assay; assay type: functional, cell-based; conditions: A549, 48 h
A549 [6] = experiment: Synergistic antiproliferative activity against human A549 cells assessed as combination index in presence of vorinostat by Chou-Talalay method; assay type: functional
A549 [7] = experiment: Synergistic antiproliferative activity against human A549 cells assessed as combination index in presence of 2.5 to 46 uM tubastatin-A by Chou-Talalay method; assay type: functional; conditions: dose 2.5-46 µM

| Structure (SMILES) | inhibition [1] | inhibition [2] | inhibition [3] | inhibition [4] | other results |
| --- | --- | --- | --- | --- | --- |
| Cc1ccc2c(c1)NC(=C1\C(=O)Nc3ccccc31)/C2=N/OCCCCCCC(=O)NO | 4% | 94.4% |  |  |  |
| O=C(CCCO/N=C1/C(=C2/C(=O)Nc3ccc(Br)cc32)Nc2ccccc21)NO |  | 9.1% | -0.2% | -0.8% |  |
| O=C(CO/N=C1/C(=C2/C(=O)Nc3ccc(Br)cc32)Nc2ccccc21)NO |  | 17.5% | 54.5% | 44.4% |  |
| O=C(CCCCCCO/N=C1/C(=C2/C(=O)Nc3ccc(Br)cc32)Nc2ccccc21)NO | 5% | 87.5% | -4.3% | -2.3% |  |
| COc1ccc2c(c1)/C(=C1/Nc3ccccc3/C1=N\OCCCCCCC(=O)NO)C(=O)N2 | 54% | 88.6% | 13% | 3.5% |  |
| O=C(CO/N=C1/C(=C2/C(=O)Nc3ccccc32)Nc2ccccc21)NO | 46.7% | 19.6% | 26.2% | 46.8% |  |
| O=C(CCCCCCO/N=C1/C(=C2/C(=O)Nc3ccccc32)Nc2ccc(Cl)cc21)NO | -1.4% | 90.8% |  |  |  |
| O=C(CCCCCCO/N=C1/C(=C2/C(=O)Nc3ccc(I)cc32)Nc2ccccc21)NO | 55.7% | 67.3% | 9.7% | 0.8% |  |
| O=C(CCCCCCO/N=C1/C(=C2/C(=O)Nc3ccc(Cl)cc32)Nc2ccccc21)NO | 54.9% | 82.6% | 18% | 63% |  |
| O=C(CCCCCO/N=C1/C(=C2/C(=O)Nc3ccccc32)Nc2ccccc21)NO | 30% | 89.9% | 10.2% | 28.8% |  |
| O=C(CCCCCCC(=O)Nc1ccccc1)NO | 2.9% |  | -5.8% | 0.8% |  |
| O=C(CCCCO/N=C1/C(=C2/C(=O)Nc3ccc(Br)cc32)Nc2ccccc21)NO |  | 60.2% | 17.9% | 8% |  |
| O=C1Nc2ccccc2/C1=C1/Nc2ccccc2/C1=N\O | 33.9% | 15% | -1.5% | 46.6% |  |
| O=C(CCCCCCO/N=C1/C(=C2/C(=O)Nc3ccc([N+](=O)[O-])cc32)Nc2ccccc21)NO | 33.4% | 77.2% | 1.1% | 1% |  |
| O=C(CCCCCCO/N=C1/C(=C2/C(=O)Nc3ccccc32)Nc2ccccc21)NO | 14.6% | 98.1% | 6.1% | 6.5% |  |
| O=C1Nc2ccccc2/C1=C1/Nc2ccccc2C1=O [INDIRUBIN] | 8.5% | 17.2% | 1% | 25.1% | IC50 (HepG2): > 10 µM; IC50 (MCF7): > 10 µM; IC50 (HeLa): > 10 µM; IC50 (K562): > 10 µM; IC50 (A549 [5]): > 10 µM |
| O=C(CCCCCCO/N=C1/C(=C2/C(=O)Nc3ccc(F)cc32)Nc2ccccc21)NO | 45.4% | 82.7% | 17.2% | 4.9% |  |
| O=C(CCCCCCO/N=C1/C(=C2/C(=O)Nc3c2cccc3C(F)(F)F)Nc2ccccc21)NO | 3% | 8% | -5.6% | 4% |  |
| Cc1ccc2c(c1)C(=N\OCCCCCCC(=O)NO)/C(=C1/C(=O)Nc3ccccc31)N2 | 11.6% | 97.8% | -1.7% | 2.7% |  |
| O=C(CCCCCCO/N=C1/C(=C2/C(=O)Nc3ccccc32)Nc2ccc(Br)cc21)NO | 0.5% | 79.5% |  |  |  |
| O=C(CCCCCO/N=C1/C(=C2/C(=O)Nc3ccc(Br)cc32)Nc2ccccc21)NO |  | 21.4% | 3.5% | -0.7% |  |
| O=C(CCCCCCO/N=C1/C(=C2/C(=O)Nc3ccccc32)Nc2ccc([N+](=O)[O-])cc21)NO | 6.2% | 76.6% |  |  |  |
| O=C(CCCCCCCO/N=C1/C(=C2/C(=O)Nc3ccccc32)Nc2ccccc21)NO | 6.6% | 90.6% | -4.5% | -2.7% |  |
| Cc1ccc2c(c1)/C(=C1/Nc3ccccc3/C1=N\OCCCCCCC(=O)NO)C(=O)N2 | 18.6% | 89.9% | 1.3% | -2.2% |  |
| COc1ccc2c(c1)NC(=O)/C2=C1\Nc2ccccc2\C1=N/OCCCCCCC(=O)NO | 4.5% | 44.7% | -2.5% | 8.3% |  |
| COc1ccc2c(c1)C(=N\OCCCCCCC(=O)NO)/C(=C1/C(=O)Nc3ccccc31)N2 | 5.9% | 93.5% |  |  |  |
| CC(=O)c1c(C)c2cnc(Nc3ccc(N4CCNCC4)cn3)nc2n(C2CCCC2)c1=O [PALBOCICLIB] |  |  |  |  | IC50 (HepG2): > 10 µM; IC50 (MCF7): > 10 µM; IC50 (HeLa): > 10 µM; IC50 (K562): > 10 µM; IC50 (A549 [5]): 9.4 µM; CI (A549 [6]): 0.9; CI (A549 [7]): 0.9 |
| O=C(CCCCO/N=C1/C(=C2/C(=O)Nc3ccccc32)Nc2ccccc21)NO | 47.4% | 58.3% | 21.1% | 45.4% |  |
| Cc1cccc2c1NC(=O)/C2=C1\Nc2ccccc2\C1=N/OCCCCCCC(=O)NO | 2.1% | 91.1% | 2% | 4.6% |  |
